Test results published in PMC5546936, “CLE42 binding induces PXL2 interaction with SERK2” (Protein & Cell, 2017).
Where a SMILES comes first, the peptide text is derived from it. Where no end group is shown, it is not given here. [ ]: non-standard residue; d: D form. Hyp = O=C(O)[C@@H]1C[C@@H](O)CN1

Tests used:
[1] = molecular target: T1, PXL2LRR (extracellular LRR domain protein of PXL2) (Arabidopsis thaliana, UniProt Q9M0G7); experiment: biochemical; type: binding
T1 construct: The LRR domain of PXL2 (residues 1-633, PXL2LRR) from Arabidopsis with an engineered; 6xHis (C); made in house; host or cells: High Five insect cells (baculovirus, pFastBac 1)
T1 sequence (Q9M0G7 24-633): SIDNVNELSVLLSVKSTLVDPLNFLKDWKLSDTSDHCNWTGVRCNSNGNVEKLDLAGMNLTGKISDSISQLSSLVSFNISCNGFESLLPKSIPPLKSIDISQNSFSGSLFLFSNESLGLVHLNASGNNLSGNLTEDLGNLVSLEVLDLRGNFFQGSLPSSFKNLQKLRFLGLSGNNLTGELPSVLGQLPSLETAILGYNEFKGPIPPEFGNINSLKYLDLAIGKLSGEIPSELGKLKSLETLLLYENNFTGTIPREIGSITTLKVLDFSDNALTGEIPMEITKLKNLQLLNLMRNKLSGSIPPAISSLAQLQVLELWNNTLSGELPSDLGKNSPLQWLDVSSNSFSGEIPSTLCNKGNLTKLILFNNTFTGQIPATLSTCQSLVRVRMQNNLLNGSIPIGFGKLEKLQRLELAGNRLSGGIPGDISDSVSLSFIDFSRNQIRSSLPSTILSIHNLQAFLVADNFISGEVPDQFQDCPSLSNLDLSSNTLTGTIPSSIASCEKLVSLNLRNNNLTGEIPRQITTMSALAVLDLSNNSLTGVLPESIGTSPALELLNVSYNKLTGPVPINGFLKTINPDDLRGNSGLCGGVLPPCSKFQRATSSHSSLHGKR
Procedure: (C) Measurement of the binding affinity between PXL2^LRR and CLE42 by ITC. Top panel: twenty injections of CLE42 solution were titrated into PXL2^LRR in the ITC cell. The area of each injection peak corresponds to the total heat released for that injection. Bottom panel: the binding isotherm for PXL2^LRR-CLE42 interaction. The integrated heat is plotted against the molar ratio between CLE42 and PXL2^LRR. […] The assay was performed as described in (C).

[2] = molecular target: extracellular LRR domain protein of PXL2 (PXL2^LRR) (Arabidopsis thaliana); experiment: ITC; twenty injections of peptide solution titrated into PXL2^LRR in the ITC cell

Row | Kd [2] [µM] | Molecule | Kd [1] [µM] | further results
1 |  | CC[C@H](C)[C@H](NC(=O)[C@@H]1CCCN1C(=O)[C@H](CC(N)=O)NC(=O)[C@@H]1C[C@@H](O)CN1C(=O)CNC(=O)[C@H](CO)NC(=O)[C@@H]1C[C@@H](O)CN1C(=O)[C@@H](NC(=O)[C@H](CCC(=O)O)NC(=O)[C@@H](N)Cc1c[nH]cn1)C(C)C)C(=O)N[C@@H](CO)C(=O)N[C@@H](CC(N)=O)C(=O)O [CLE41, His-Glu-Val-Hyp-Ser-Gly-Hyp-Asn-Pro-Ile-Ser-Asn] (H-HEV[Hyp]SG[Hyp]NPISN-OH) | 10 | 
2 |  | CC[C@H](C)[C@H](NC(=O)[C@@H]1CCCN1C(=O)[C@H](CC(N)=O)NC(=O)[C@@H]1C[C@@H](O)CN1C(=O)CNC(=O)[C@H](CO)NC(=O)[C@@H]1C[C@@H](O)CN1C(=O)[C@@H](NC(=O)CNC(=O)[C@@H](N)Cc1c[nH]cn1)C(C)C)C(=O)N[C@@H](CO)C(=O)N[C@@H](CC(N)=O)C(=O)O [CLE42, His-Gly-Val-Hyp-Ser-Gly-Hyp-Asn-Pro-Ile-Ser-Asn] (H-HGV[Hyp]SG[Hyp]NPISN-OH) | 2.75 | 
3 |  | RLV[Hyp]SG[Hyp]NPLHH [CLE13, negative control] |  | interaction with PXL2LRR by ITC ([1]; ITC200, 25 °C, 10 mM Bis-Tris pH 6.0, 100 mM NaCl, approximately 0.5 mM peptide, 0.05 mM PXL2LRR, repeated at least three times, negative control): no detectable interaction
4 | 2.75 | HGV[Hyp]SG[Hyp]NPISN [CLE42] |  | 
5 | 10 | HEV[Hyp]SG[Hyp]NPISN [CLE41/44 or TDIF (tracheary elements differentiation inhibitory factor)] |  | 
